# Reference: patent publication US4224326A, “Immunosuppressive agents” (Eli Lilly and Company, priority 1978, dated 1980)
# Read-outs that look alike come from different tables or passages of the source.
# Assays:
# [1] = test system: GVH reaction; assay: Graft-versus-host (GVH) reaction, spleen weight; format: in vivo, mouse (C57BL spleen cells into C57BL×C3H F1 hybrid)
# Procedure: In this test, parental (C57BL) mouse spleen cells are injected into mice of an F1 hybrid strain (C57BL×C3H). […] As a consequence, the recipient's spleen becomes enlarged. Immunosuppression prevents or reduces this enlargement. Thus, spleen weights provide a measure of the GVH reaction and its reduction under immunosuppression. A modification of Simonsen's original procedure (Ann. N.Y. Acad. Sci. 73:834, 1958) was employed. Large crops of spleen cells were obtained, without the generally employed manual teasing of spleens, by using Waring blendors with the cutting blades reversed. Two six-second blending periods buffeted the spleens (batches of 25 C57BL spleens in 25-ml saline) sufficiently to free the cells from the connective tissue. The latter was removed by filtration through several thicknesses of cheesecloth. Cell suspensions prepared in this fashion were standardized, by means of Levy-Hausser chamber counts, to contain 6×10^8 nucleated cells per ml. Groups of ten 16-18 gram C57BL×C3H mice were injected intraperitoneally with 1 ml of the donor cell suspension. Treatment, by the oral or subcutaneous route in 0.2 ml, was instituted 3 days prior to cell injection and continued daily for 13 days. Control animals received only cells and vehicle. The spleens were removed and weighed 10 days following cell injection. The results were expressed as mg spleen/gram body weight. Since the injection of syngeneic, i.e., C57BL×C3H, cells into the recipient mice produces a minor degree of splenomegaly, spleen weights of such animals were used to define 100% suppression of the GVH component in calculating percents of inhibition produced by the immunosuppressive compounds.
# [2] = test system: antibody (hemagglutinin) production against sheep red blood cells; assay: Mouse hemagglutinin assay, oral administration (antibody reduction); format: in vivo, mouse (male, random-bred, Swiss); conditions: Erythrocyte, nine daily doses, pooled sera of 5 mice, read-out: minimum effective dose (MED), lowest dose producing 75 percent or greater antibody reduction
# Procedure: (§1) Groups of five 20-gram, male, random-bred, Swiss mice received intravenous injections of 5×10^7 sheep red blood cells. The cells for these injections were prepared from lamb's blood (collected in Alsever's solution) by washing three times with 0.85 percent saline and resuspending in 0.85 percent saline. Nine daily doses of each compound to be tested, solubilized in polyethylene glycol 400, were administered orally in 0.1 ml. doses, commencing three days prior to red blood cell injection. Several dose levels of each compound were employed, at 2-fold increments. A control group of mice, receiving a red blood cell injection and nine daily doses of vehicle instead of drug, was included. Six days after the antigen injections, the mice were bled by cardiac puncture and the sera from each 5-mouse group pooled. The serum pools, following complement inactivation, were assayed for hemagglutinin content by standard procedures, utilizing a mixture of serial 2-fold saline dilutions of the test sera with 0.5 percent sheep red blood cell suspensions in plastic depression trays. Following incubation of the trays for 3 hours at 37° C., the hemagglutination patterns were graded.
# [3] = test system: antibody (hemagglutinin) titer against sheep red blood cells; assay: Individual serum assay procedure (hemagglutinin titer); format: in vivo; conditions: Erythrocyte, ten daily doses, 10-mouse groups, read-out: Endpoint Dose (p <0.05), lowest dose significantly lowering antibody titer
# Procedure: as §1, with “graded. […] The mice were bled as before, but the sera were titered individually rather than as a pool. Mean hemagglutinin values (log2)±S.E. were calculated for each 10-mouse group and p values (by Student's t Test), in comparison with the control group, were determined. […] The drugs were administered orally or subcutaneously in ten daily doses, commencing three days prior to red blood cell injection. Drugs were suspended in a vehicle composed of saline containing 0.125 percent methylcellulose and 0.2 percent nonionic emulsifying agent. Antibody (hemagglutinin) determinations were made seven days following a red blood cell injection.” for “graded.”
# [4] = test system: adjuvant-induced arthritis (uninjected hind paw swelling, bone damage); assay: Adjuvant-induced arthritis test in rats; format: in vivo, rat (male Lewis-Wistar); conditions: 30 mg/kg/day oral; for % inhibition (uninjected paw volume): printed under Day 18, formula in footnote drawing
# [5] = Day 11, TB control 2.02 ± 0.037
# [6] = Day 14, TB control 2.69 ± 0.106
# [7] = Day 16, TB control 3.26 ± 0.202
# [8] = Day 18, TB control 3.65 ± 0.227
smiles,measurement,setting,value
"COc1ccc2nc(NC(=O)Nc3ccccc3)sc2c1 [1-(6-methoxy-2-benzothiazolyl)-3-phenylurea, reference compound]",Percent Inhibition,"[1]; 12.5 mg/kg × 13, oral, illustrative calculation with Syn. Control 5.20",74%
same,Mg Spleen/g Body Wt. ± S.E.,"[1]; 12.5 mg/kg × 13, oral, p<0.01 vs GVH control (11.55 ± 1.01), groups of 5 mice",6.86 ± 0.80 mg spleen/g body wt
"Brc1ccc(C2Nc3cccc4cccc(c34)N2)cc1 [2,3-dihydro-2-(p-bromophenyl)-1H-perimidine]",minimal effective dose,[2],25 mg/kg
"Brc1ccc(C2=Nc3cccc4cccc(c34)N2)cc1Br.Cl [2-(3,4-dibromophenyl)-1H-perimidine hydrochloride]",minimal effective dose,[2],50 mg/kg
"Cl.Clc1ccc(C2=Nc3cccc4cccc(c34)N2)cc1Cl [2-(3,4-dichlorophenyl)-1H-perimidine hydrochloride]",minimal effective dose,"[3]; sc, subcutaneous",< 3.1 mg/kg
same,minimal effective dose,[3]; oral,< 3.1 mg/kg
same,minimal effective dose,[2],12.5 mg/kg
Cl.Clc1ccc(C2=Nc3cccc4cccc(c34)N2)cc1Br [2-(3-bromo-4-chlorophenyl)-1H-perimidine hydrochloride],minimal effective dose,[2],50 mg/kg
Cl.Clc1cc(C2=Nc3cccc4cccc(c34)N2)ccc1Br [2-(4-bromo-3-chlorophenyl)-1H-perimidine hydrochloride],minimal effective dose,[2],50 mg/kg
Brc1cccc(C2=Nc3cccc4cccc(c34)N2)c1.Cl [2-(m-bromophenyl)-1H-perimidine hydrochloride],minimal effective dose,[2],100 mg/kg
Cl.FC(F)(F)c1cccc(C2=Nc3cccc4cccc(c34)N2)c1 [2-(m-trifluoromethylphenyl)-1H-perimidine hydrochloride],minimal effective dose,[2],100 mg/kg
Cl.FC(F)(F)C(F)(F)Oc1ccc(C2=Nc3cccc4cccc(c34)N2)cc1 [2-(p-PENTAFLUOROETHOXYPHENYL)-1H-PERIMIDINE HYDROCHLORIDE],minimal effective dose,[2],100 mg/kg
F.FC(F)(F)Oc1ccc(C2=Nc3cccc4cccc(c34)N2)cc1 [2-(p-TRIFLUOROMETHOXYPHENYL)-1H-PERIMIDINE HYDROFLUORIDE],minimal effective dose,[3]; oral,12.5 mg/kg
same,minimal effective dose,[2],< 100 mg/kg
Cl.FC(F)(F)c1ccc(C2=Nc3cccc4cccc(c34)N2)cc1 [2-(p-TRIFLUOROMETHYLPHENYL)-1H-PERIMIDINE HYDROCHLORIDE],"Percent Inhibition, GVH Series","[1]; 1.6 mg/kg × 13, oral",78%
same,Mg Spleen/g mouse weight (mean + S.E.),"[1]; 1.6 mg/kg × 13, oral, p <0.05, control 8.64 ± 1.10",5.66 ± 0.33 mg spleen/g mouse weight
same,"Percent Inhibition, GVH Series","[1]; 3.1 mg/kg × 13, oral",96%
same,Mg Spleen/g mouse weight (mean + S.E.),"[1]; 3.1 mg/kg × 13, oral, p <0.01, control 8.64 ± 1.10",4.96 ± 0.31 mg spleen/g mouse weight
same,"Percent Inhibition, GVH Series","[1]; 6.2 mg/kg × 13, oral",77%
same,Mg Spleen/g mouse weight (mean + S.E.),"[1]; 6.2 mg/kg × 13, oral, p <0.05, control 8.64 ± 1.10",5.67 ± 0.51 mg spleen/g mouse weight
same,"Percent Inhibition, GVH Series","[1]; 12.5 mg/kg × 13, oral",53%
same,Mg Spleen/g mouse weight (mean + S.E.),"[1]; 12.5 mg/kg × 13, oral, control 8.64 ± 1.10",6.62 ± 1.17 mg spleen/g mouse weight
same,"Percent Inhibition, GVH Series","[1]; 25 mg/kg × 13, oral",101%
same,Mg Spleen/g mouse weight (mean + S.E.),"[1]; 25 mg/kg × 13, oral, p <0.005, control 8.64 ± 1.10",4.75 ± 0.42 mg spleen/g mouse weight
same,minimal effective dose,"[3]; sc, subcutaneous",< 1.6 mg/kg
same,minimal effective dose,[3]; oral,< 1.6 mg/kg
same,minimal effective dose,[2],6.25 mg/kg
same,Uninjected Paw Volume,"[4]; Day 9, TB control 1.94 ± 0.028",1.93 ± 0.081
same,Uninjected Paw Volume,[4]; [5],1.95 ± 0.079
same,Uninjected Paw Volume,[4]; [6],2.13 ± 0.148
same,Uninjected Paw Volume,[4]; [7],2.35 ± 0.233
same,Uninjected Paw Volume,[4]; [8],2.53 ± 0.39
same,"Gross observation of X-ray photos, bone damage in injected and uninjected paws","[4]; day 18, bone damage very obvious in TB control",no bone damage
same,% inhibition (uninjected paw volume),[4],69%
Cl.FC(F)(F)Sc1ccc(C2=Nc3cccc4cccc(c34)N2)cc1 [2-(p-TRIFLUOROMETHYLTHIOPHENYL)-1H-PERIMIDINE HYDROCHLORIDE],minimal effective dose,[3]; oral,50 mg/kg
same,minimal effective dose,[2],< 100 mg/kg
Brc1ccc(C2=Nc3cccc4cccc(c34)N2)cc1.Cl [2-(p-bromophenyl)-1H-perimidine hydrochloride],minimal effective dose,"[3]; sc, subcutaneous",< 3.1 mg/kg
same,minimal effective dose,[3]; oral,25 mg/kg
same,minimal effective dose,[2],12.5 mg/kg
Brc1ccc(C2=Nc3cccc4cccc(c34)N2)cc1 [2-(p-bromophenyl)-1H-perimidine],"Percent Inhibition, GVH Series","[1]; 3.1 mg/kg × 13, subcutaneous",19%
same,Mg Spleen/g mouse weight (mean + S.E.),"[1]; 3.1 mg/kg × 13, subcutaneous, control 8.84 ± 0.72",8.08 ± 0.66 mg spleen/g mouse weight
same,"Percent Inhibition, GVH Series","[1]; 6.2 mg/kg × 13, subcutaneous",66%
same,Mg Spleen/g mouse weight (mean + S.E.),"[1]; 6.2 mg/kg × 13, subcutaneous, p <0.01, control 8.84 ± 0.72",6.18 ± 0.39 mg spleen/g mouse weight
same,"Percent Inhibition, GVH Series","[1]; 12.5 mg/kg × 13, subcutaneous",79%
same,Mg Spleen/g mouse weight (mean + S.E.),"[1]; 12.5 mg/kg × 13, subcutaneous, p <0.005, control 8.84 ± 0.72",5.64 ± 0.65 mg spleen/g mouse weight
same,"Percent Inhibition, GVH Series","[1]; 25 mg/kg × 13, subcutaneous",84%
same,Mg Spleen/g mouse weight (mean + S.E.),"[1]; 25 mg/kg × 13, subcutaneous, p <0.001, control 8.84 ± 0.72",5.43 ± 0.41 mg spleen/g mouse weight
same,"Percent Inhibition, GVH Series","[1]; 50 mg/kg × 13, subcutaneous",102%
same,Mg Spleen/g mouse weight (mean + S.E.),"[1]; 50 mg/kg × 13, subcutaneous, p <0.001, control 8.84 ± 0.72",4.70 ± 0.21 mg spleen/g mouse weight
same,minimal effective dose,[2],25 mg/kg
Clc1ccc(C2=Nc3cccc4cccc(c34)N2)cc1 [2-(p-chlorophenyl)-1H-perimidine],minimal effective dose,[2],100 mg/kg
"Cn1cnc([N+](=O)[O-])c1Sc1ncnc2nc[nH]c12 [Azathioprine, reference compound]",minimal effective dose,[2],100 mg/kg
"CC(C(=O)O)c1cccc(Oc2ccccc2)c1 (stereo not shown) [fenoprofen, reference compound]",Uninjected Paw Volume,"[4]; Day 9, TB control 1.94 ± 0.028",1.97 ± 0.023
same,Uninjected Paw Volume,[4]; [5],2.11 ± 0.07
same,Uninjected Paw Volume,[4]; [6],2.38 ± 0.099
same,Uninjected Paw Volume,[4]; [7],2.7 ± 0.107
same,Uninjected Paw Volume,[4]; [8],2.67 ± 0.128
same,% inhibition (uninjected paw volume),[4],23%
